Results published in patent publication US9023851B2 (Merck Patent GmbH, priority 2010, dated 2015).

Columns and labels:
Type in all cases: biochemical
[1] = molecular target: T1, Src (Homo sapiens, UniProt P12931); assay: cSrc enzymatic assay (Caliper LifeSciences technology)
T1 construct: purchased Carna Bioscience, Kobe, Japan
Method: (§1) Enzymatic Assays Using the Caliper LifeSciences Technology
(§2) The assays described here are performed on the Caliper Life Sciences LC3000 system This technology provides data on enzyme activity via measurement of the relative amounts of phosphorylated or unphosphorylated fluorescently labelled substrate peptide at the end of an enzymatic reaction. These different states of peptide are resolved by applying a potential difference across the sample. The presence of the charged phosphate group on the product (as opposed to the substrate) causes a different peptide mobility between the two peptides. This is visualized by excitation of the fluorescent label on the substrate and product peptides and represented as peaks within the analysis software.
(§3) In order to measure inhibitor activity of kinase inhibitors on this technology, a TTP Mosquito liquid handling instrument is used to place 0.25 ul of the appropriate concentration of inhibitor in 100% DMSO (for a dose response curve calculation) into each well of a 384-well plate. To this reaction components are added to a final volume of 25 ul. The table below indicates the sequences and concentrations for the assays described in this report. Standard components are 1 mM DTT (Sigma, D0632), 1 mM MgCl2 (Sigma, M1028), 100 mM HEPES pH 7.5 (Calbiochem, 391338), 0.015% Brij-35 (Sigma, B4184).
(§4) The reaction is incubated for 90 min at 25 C, and then stopped by the addition of 70 ul of Stop buffer (100 mM HEPES pH 7.5, 0.015% Brij-35, 10 mM EDTA (Sigma, E7889)).
(§5) The plate is read on a Caliper LC 3000 in an Off-Chip mobility shift assay format, on a 12-sipper chip. Unphosphorylated substrate and phosphorylated product peptide resolve as separate peaks allowing direct measurement of percentage of conversion of substrate to product. The percent conversion can be plotted against concentration of inhibitor to produce a sigmoidal dose response curve, from which an IC50 can be calculated using GeneData Condoseo or a similar product. Cellular activity assays

[2] = molecular target: T2, Syk (Homo sapiens, UniProt P43405); assay: Syk enzyme assay (flash plate / Caliper mobility shift)
T2 construct: purchased BPS Bioscience, CA, USA
Method: The kinase assay is performed either as 384-well Flashplate assay (for e.g. Topcount measurement) or as 384-well Image-Flashplate assay (for LEADseeker measurement).
2.5 nM SYK, 400 nM Biotin-Aha-Aha-[…] and 10 μM ATP (spiked with 0.3 μCi 33P-ATP/well) are incubated in a total volume of 50 μl (60 mM Hepes, 10 mM MgCl2, 1.2 mM Dithiothreitol, 0.02% Brij35, 0.1% BSA, pH 7.5) with or without test compound for 1 hours at 30° C. The reaction is stopped with 25 μl 200 mM EDTA. After 30 Min at 30° C. the liquid is removed and each well washed thrice with 100 μl 0.9% sodium chloride solution. Non-specific reaction is determined in presence of 0.1 μM Staurosporine. Radioactivity is measured with Topcount (when using Flashplates) or with LEADseeker (when using Image-Flashplates) respectively. Results (e.g. IC50-values) are calculated with program tools provided by the IT-department (e.g. Symyx Assay Explorer, Genedata Screener).
as §1, §2, §3, §4, §5

[3] = molecular target: T3, KDR (Homo sapiens, UniProt P35968); assay: KDR enzymatic assay (Caliper LifeSciences technology)
T3 construct: purchased BPS Bioscience, CA, USA
T3 sequence (P35968 20-1356): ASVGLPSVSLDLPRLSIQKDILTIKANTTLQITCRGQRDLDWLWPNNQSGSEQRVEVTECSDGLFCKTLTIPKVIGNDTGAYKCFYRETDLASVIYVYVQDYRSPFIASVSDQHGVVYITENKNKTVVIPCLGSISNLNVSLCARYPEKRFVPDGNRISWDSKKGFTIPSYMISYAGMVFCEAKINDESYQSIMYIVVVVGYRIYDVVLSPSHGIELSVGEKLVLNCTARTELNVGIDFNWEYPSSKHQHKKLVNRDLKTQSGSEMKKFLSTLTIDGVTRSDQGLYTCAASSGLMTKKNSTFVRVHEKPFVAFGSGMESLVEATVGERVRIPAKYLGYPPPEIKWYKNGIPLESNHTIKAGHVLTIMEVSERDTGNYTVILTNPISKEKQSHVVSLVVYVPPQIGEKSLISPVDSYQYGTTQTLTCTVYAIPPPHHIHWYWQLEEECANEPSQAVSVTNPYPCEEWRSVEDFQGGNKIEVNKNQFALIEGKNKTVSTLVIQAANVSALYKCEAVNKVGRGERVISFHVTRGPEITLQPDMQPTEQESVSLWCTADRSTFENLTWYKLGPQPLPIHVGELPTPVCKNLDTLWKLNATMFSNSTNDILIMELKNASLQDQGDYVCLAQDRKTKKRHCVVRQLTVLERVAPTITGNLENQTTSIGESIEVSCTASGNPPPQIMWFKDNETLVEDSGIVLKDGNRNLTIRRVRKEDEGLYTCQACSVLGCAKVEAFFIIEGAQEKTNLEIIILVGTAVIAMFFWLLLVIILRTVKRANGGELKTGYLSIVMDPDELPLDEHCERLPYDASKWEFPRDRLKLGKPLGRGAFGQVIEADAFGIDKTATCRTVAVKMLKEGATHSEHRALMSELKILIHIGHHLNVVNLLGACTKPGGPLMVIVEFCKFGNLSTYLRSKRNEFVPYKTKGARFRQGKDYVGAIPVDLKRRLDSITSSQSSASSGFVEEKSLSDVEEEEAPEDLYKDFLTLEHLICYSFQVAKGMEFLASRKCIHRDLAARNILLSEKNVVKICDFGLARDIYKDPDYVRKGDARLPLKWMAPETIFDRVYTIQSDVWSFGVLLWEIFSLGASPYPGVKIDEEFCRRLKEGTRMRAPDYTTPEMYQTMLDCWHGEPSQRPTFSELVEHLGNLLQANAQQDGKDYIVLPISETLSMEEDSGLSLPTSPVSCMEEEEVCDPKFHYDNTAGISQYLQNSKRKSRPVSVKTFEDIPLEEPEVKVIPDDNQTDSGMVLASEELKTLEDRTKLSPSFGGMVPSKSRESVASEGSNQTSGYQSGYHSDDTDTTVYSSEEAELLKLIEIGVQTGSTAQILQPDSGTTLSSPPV
Method: as §1, §2, §3, §4, §5

[4] = molecular target: T4, ZAP-70 (Homo sapiens, UniProt P43403); assay: Zap70 enzymatic assay (Caliper LifeSciences technology)
T4 construct: purchased BPS Bioscience, CA, USA
T4 sequence (P43403 1-619): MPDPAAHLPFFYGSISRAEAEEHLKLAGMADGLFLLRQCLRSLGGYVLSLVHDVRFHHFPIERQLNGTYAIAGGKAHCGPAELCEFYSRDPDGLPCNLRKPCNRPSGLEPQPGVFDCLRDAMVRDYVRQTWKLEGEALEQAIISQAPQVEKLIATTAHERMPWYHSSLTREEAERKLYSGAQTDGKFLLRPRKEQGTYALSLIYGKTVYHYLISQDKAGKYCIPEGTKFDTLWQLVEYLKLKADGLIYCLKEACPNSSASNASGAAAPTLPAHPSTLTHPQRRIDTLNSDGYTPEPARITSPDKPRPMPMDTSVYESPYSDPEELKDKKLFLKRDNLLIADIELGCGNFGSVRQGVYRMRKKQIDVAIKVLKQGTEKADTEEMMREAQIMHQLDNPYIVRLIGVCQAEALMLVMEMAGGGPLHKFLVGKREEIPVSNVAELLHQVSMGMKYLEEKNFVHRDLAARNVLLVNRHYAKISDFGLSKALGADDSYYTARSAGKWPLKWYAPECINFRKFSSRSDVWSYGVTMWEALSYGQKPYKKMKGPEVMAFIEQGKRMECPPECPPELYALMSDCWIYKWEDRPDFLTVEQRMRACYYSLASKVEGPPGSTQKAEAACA
Method: as §1, §2, §3, §4, §5

T1 sequence (P12931 whole entry): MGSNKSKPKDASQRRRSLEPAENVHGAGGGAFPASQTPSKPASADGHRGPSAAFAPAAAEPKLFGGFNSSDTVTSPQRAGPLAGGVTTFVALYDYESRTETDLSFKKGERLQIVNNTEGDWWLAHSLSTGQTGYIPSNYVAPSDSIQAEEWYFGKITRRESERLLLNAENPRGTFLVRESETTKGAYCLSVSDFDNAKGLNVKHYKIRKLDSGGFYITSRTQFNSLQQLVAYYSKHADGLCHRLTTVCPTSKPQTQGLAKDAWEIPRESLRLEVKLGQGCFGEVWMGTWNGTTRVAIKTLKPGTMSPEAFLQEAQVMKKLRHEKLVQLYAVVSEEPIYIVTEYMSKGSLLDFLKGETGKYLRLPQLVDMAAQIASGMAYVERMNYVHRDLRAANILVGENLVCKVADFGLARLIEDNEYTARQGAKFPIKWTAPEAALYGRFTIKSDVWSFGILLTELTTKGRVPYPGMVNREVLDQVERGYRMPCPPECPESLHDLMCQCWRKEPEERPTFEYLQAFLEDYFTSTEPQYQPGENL

Row | SMILES | IC50 [1] [µM] | IC50 [2] [µM] | IC50 [3] [µM] | IC50 [4] [µM]
1 | COc1cc(Nc2nc3c(Cl)nccn3n2)cc(OC)c1 [Example B2, 8-Chloro-[1,2,4]triazolo[1,5-a]pyrazin-2-yl-(3,5-dimethoxy-phenyl)-amine] | 3 to 50 | 3 to 50 |  | 
2 | Cc1cc(C)cc(Nc2nc3c(-c4cccnc4)nccn3n2)c1 [Example C4, (3,5-Dimethyl-phenyl)-(8-pyridin-3-yl-[1,2,4]triazolo[1,5-a]pyrazin-2-yl)-amine] | 0.3 to 3 | 0.3 to 3 | 0.3 to 3 | 
3 | Cc1cc(C)cc(Nc2nc3c(-c4ccc(N5CCOCC5)cc4)nccn3n2)c1 [Example C11, (3,5-Dimethyl-phenyl)-[8-(4-morpholin-4-yl-phenyl)-[1,2,4]triazolo[1,5-a]pyrazin-2-yl]-amine] | 3 to 50 | 3 to 50 | 3 to 50 | 
4 | Cc1cccc(Nc2nc3c(-c4ccc(N5CCOCC5)cc4)nccn3n2)c1 [Example C13, [8-(4-Morpholin-4-yl-phenyl)-[1,2,4]triazolo[1,5-a]pyrazin-2-yl]-m-tolyl-amine] | 3 to 50 | 0.3 to 3 | 0.3 to 3 | 3 to 50
5 | FC(F)(F)c1cccc(Nc2nc3c(-c4cccnc4)nccn3n2)c1 [Example C20, (8-Pyridin-3-yl-[1,2,4]triazolo[1,5-a]pyrazin-2-yl)-(3-trifluoromethyl-phenyl)-amine] | 3 to 50 | 0.3 to 3 | 3 to 50 | 
6 | c1ccc(Nc2nc3c(-c4cccnc4)nccn3n2)cc1 [Example C22, Phenyl-(8-pyridin-3-yl-[1,2,4]triazolo[1,5-a]pyrazin-2-yl)-amine] | 3 to 50 | 3 to 50 | 0.3 to 3 | 
7 | Cn1ccnc1Sc1ccc(Nc2nc3c(-c4ccccc4)nccn3n2)cc1Cl [Example C23, [3-Chloro-4-(1-methyl-1H-imidazol-2-ylsulfanyl)-phenyl]-(8-phenyl-[1,2,4]triazolo[1,5-a]pyrazin-2-yl)-amine] | 3 to 50 | 0.3 to 3 | 0.3 to 3 | 3 to 50
8 | Cc1cc(C)cc(Nc2nc3c(NCCCN4CCOCC4)nccn3n2)c1 [Example C28, N^2-(3,5-Dimethyl-phenyl)-N^8-(3-morpholin-4-yl-propyl)-[1,2,4]triazolo[1,5-a]pyrazine-2,8-diamine] | 3 to 50 | 3 to 50 | 0.3 to 3 | 
9 | COc1cc(Nc2nc3c(NCCN)nccn3n2)cc(OC)c1 [Example C29, N^8-(2-Amino-ethyl)-N^2-(3,5-dimethoxy-phenyl)-[1,2,4]triazolo[1,5-a]pyrazine-2,8-diamine] | 3 to 50 | 3 to 50 | 3 to 50 | 
10 | COc1cc(Nc2nc3c(NCCCN4CCN(C)CC4)nccn3n2)cc(OC)c1 [Example C30, N^2-(3,5-Dimethoxy-phenyl)-N^8-[3-(4-methyl-piperazin-1-yl)-propyl]-[1,2,4]triazolo[1,5-a]pyrazine-2,8-diamine] | 3 to 50 | 3 to 50 | 3 to 50 | 
11 | COCCCNc1nccn2nc(Nc3cccc(C)c3)nc12 [Example C32, N^8-(3-Methoxy-propyl)-N^2-m-tolyl-[1,2,4]triazolo[1,5-a]pyrazine-2,8-diamine] | 3 to 50 | 3 to 50 | 3 to 50 | 3 to 50
12 | CN(C)CCCNc1nccn2nc(Nc3cccc(C(F)(F)F)c3)nc12 [Example C33, N^8-(3-Dimethylamino-propyl)-N^2-(3-trifluoromethyl-phenyl)-[1,2,4]triazolo[1,5-a]pyrazine-2,8-diamine] | 3 to 50 | 3 to 50 | 3 to 50 | 
13 | Cc1cc(C)cc(Nc2nc3c(NCCN)nccn3n2)c1 [Example C34, N^8-(2-Amino-ethyl)-N^2-(3,5-dimethyl-phenyl)-[1,2,4]triazolo[1,5-a]pyrazine-2,8-diamine] | 3 to 50 | 3 to 50 | 3 to 50 | 3 to 50
14 | Cc1cc(C)cc(Nc2nc3c(NCCCN(C)C)nccn3n2)c1 [Example C35, N^8-(3-Dimethylamino-propyl)-N^2-(3,5-dimethyl-phenyl)-[1,2,4]triazolo[1,5-a]pyrazine-2,8-diamine] | 3 to 50 | 3 to 50 | 3 to 50 | 3 to 50
15 | COc1cc(Nc2nc3c(NCCCN(C)C)nccn3n2)cc(OC)c1 [Example C38, N^2-(3,5-Dimethoxy-phenyl)-N^8-(3-dimethylamino-propyl)-[1,2,4]triazolo[1,5-a]pyrazine-2,8-diamine] | 3 to 50 | 3 to 50 | 3 to 50 | 
16 | COc1cc(Nc2nc3c(NCCCN4CCOCC4)nccn3n2)cc(OC)c1 [Example C39, N^2-(3,5-Dimethoxy-phenyl)-N^8-(3-morpholin-4-yl-propyl)-[1,2,4]triazolo[1,5-a]pyrazine-2,8-diamine] | 3 to 50 | 3 to 50 | 3 to 50 | 
17 | COCCCNc1nccn2nc(Nc3cc(OC)cc(OC)c3)nc12 [Example C40, N^2-(3,5-Dimethoxy-phenyl)-N^8-(3-methoxy-propyl)-[1,2,4]triazolo[1,5-a]pyrazine-2,8-diamine] | 3 to 50 | 3 to 50 | 3 to 50 | 
18 | Cc1cccc(Nc2nc3c(NCCCN(C)C)nccn3n2)c1 [Example C46, N^8-(3-Dimethylamino-propyl)-N^2-m-tolyl-[1,2,4]triazolo[1,5-a]pyrazine-2,8-diamine] | 3 to 50 | 3 to 50 | 3 to 50 | 
19 | CN(C)CCCNc1nccn2nc(Nc3ccccc3)nc12 [Example C50, N^8-(3-Dimethylamino-propyl)-N^2-phenyl-[1,2,4]triazolo[1,5-a]pyrazine-2,8-diamine] |  | 3 to 50 | 3 to 50 | 3 to 50
20 | COc1cc(Nc2nc3c(-c4cccc(CN)c4)nccn3n2)cc(OC)c1 [Example C114, [8-(3-Aminomethyl-phenyl)-[1,2,4]triazolo[1,5-a]pyrazin-2-yl]-(3,5-dimethoxy-phenyl)-amine] | 0.3 to 3 | < 0.3 | 0.3 to 3 | 
21 | COc1cc(Nc2nc3c(-c4ccc5cccnc5c4)nccn3n2)cc(OC)c1 [Example C264, (3,5-Dimethoxy-phenyl)-(8-quinolin-7-yl-[1,2,4]triazolo[1,5-a]pyrazin-2-yl)-amine] | 0.3 to 3 | < 0.3 |  | 3 to 50
22 | COc1cc(Nc2nc3c(-c4cccc(C(N)=O)c4)nccn3n2)cc(OC)c1 [Example C276, 3-[2-(3,5-Dimethoxy-phenylamino)-[1,2,4]triazolo[1,5-a]pyrazin-8-yl]-benzamide] | 0.3 to 3 | < 0.3 | < 0.3 | 
23 | NC(=O)c1cccc(-c2nccn3nc(Nc4ccc(N5CCOCC5)cc4)nc23)c1 [Example C277, 3-[2-(4-Morpholin-4-yl-phenylamino)-[1,2,4]triazolo[1,5-a]pyrazin-8-yl]-benzamide] | 0.3 to 3 | < 0.3 | < 0.3 | 
